Measurements reported in patent US6977262B2, “Dihydropyrazolopyridine compounds and pharmaceutical use thereof” (Mitsubishi Pharma Corporation, priority 2001, dated 2005).
Structures can show the parent of a compound that is named as a salt.

SMILES | melting point
CCCC1=C(C(=O)OCC)C(c2cccs2)c2c[nH]nc2N1.O=C(O)/C=C\C(=O)O (centres unmarked) [Example 62, Ethyl 4,7-dihydro-6-propyl-4-(thiophen-2-yl)-2H-pyrazolo[3,4-b]pyridine-5-carboxylate maleate] | 129 to 131 °C
N#CC1=C(C2CC2)Nc2n[nH]cc2C1c1cccc2nonc12 (centres unmarked) [Example 269, 4-(2,1,3-Benzoxadiazol-4-yl)-5-cyano-6-cyclopropyl-4,7-dihydro-2H-pyrazolo[3,4-b]pyridine] | 200 to 201 °C (dec.)
CCCC1=C(C(=O)OCC)C(c2ccccc2C(F)(F)F)c2c[nH]nc2N1 (centres unmarked) [Example 31, Ethyl 4,7-dihydro-6-propyl-4-(2-trifluoromethylphenyl)-2H-pyrazolo[3,4-b]pyridine-5-carboxylate] | 198 to 202 °C
N#CC1=C(C2CC2)Nc2n[nH]cc2C1c1cccc(N2CCOCC2)c1 (centres unmarked) [Example 366, 5-Cyano-6-cyclopropyl-4,7-dihydro-4-(3-(morpholin-4-yl)phenyl)-2H-pyrazolo[3,4-b]pyridine] | > 260 °C
CCCC1=C(C(=O)OCC)C(c2cc(F)ccc2F)c2c[nH]nc2N1 (centres unmarked) [Example 49, Ethyl 4-(2,5-difluorophenyl)-4,7-dihydro-6-propyl-2H-pyrazolo[3,4-b]pyridine-5-carboxylate] | 168 to 169 °C
CCCC1=C(C#N)C(c2ccccc2Br)c2c[nH]nc2N1 (centres unmarked) [Example 128, 4-(2-Bromophenyl)-5-cyano-4,7-dihydro-6-propyl-2H-pyrazolo[3,4-b]pyridine] | 237 °C
N#CC1=C(C2CC2)Nc2n[nH]cc2C1c1ccccc1Cl (centres unmarked) [Example 266, 4-(2-Chlorophenyl)-5-cyano-6-cyclopropyl-4,7-dihydro-2H-pyrazolo[3,4-b]pyridine] | > 250 °C
CCCC1=C(C(=O)OCC)C(c2cccc(C#N)c2Cl)c2c[nH]nc2N1 (centres unmarked) [Example 180, Ethyl 4-(2-chloro-3-cyanophenyl)-4,7-dihydro-6-propyl-2H-pyrazolo[3,4-b]pyridine-5-carboxylate] | 213 to 215 °C
CCCC1=C(C(=O)OCC)C(c2cccc3c2OCCC3)c2c[nH]nc2N1 (single isomer, unassigned; (+)) [Example 187, (+)Ethyl 4-(3,4-dihydro-2H-benzopyran-8-yl)-4,7-dihydro-6-propyl-2H-pyrazolo[3,4-b]pyridine-5-carboxylate] | 159 to 161 °C
CCCC1=C(C#N)C(c2ccccc2Cl)c2c(n[nH]c2C(C)(C)C)N1 (centres unmarked) [Example 310, 3-t-Butyl-4-(2-chlorophenyl)-5-cyano-4,7-dihydro-6-propyl-2H-pyrazolo[3,4-b]pyridine] | > 270 °C
N#CC1=C(c2ccc(Br)s2)Nc2n[nH]cc2C1c1cccc2nonc12 (centres unmarked) [Example 291, 4-(2,1,3-Benzoxadiazol-4-yl)-6-(2-bromothiophen-5-yl)-5-cyano-4,7-dihydro-2H-pyrazolo[3,4-b]pyridine] | 208 °C
CS(=O)(=O)N1CCC(C2=C(C#N)C(c3cccc(C#N)c3Br)c3c[nH]nc3N2)CC1 (centres unmarked) [Example 1053, 4-(2-Bromo-3-cyanophenyl)-5-cyano-4,7-dihydro-6-(1-methanesulfonylpiperidin-4-yl)-2H-pyrazolo[3,4-b]pyridine] | > 280 °C
CCCC1=C(C(=O)OCC)C(c2ccccc2F)c2c[nH]nc2N1 (centres unmarked) [Example 26, Ethyl 4-(2-fluorophenyl)-4,7-dihydro-6-propyl-2H-pyrazolo[3,4-b]pyridine-5-carboxylate] | 192 to 194 °C
CCCC1=C(C#N)C(c2cccc3nonc23)c2cn(C(=O)OC(C)(C)C)nc2N1 (centres unmarked) [Example 288, 4-(2,1,3-Benzoxadiazol-4-yl)-2-tert-butoxycarbonyl-5-cyano-4,7-dihydro-6-propyl-2H-pyrazolo[3,4-b]pyridine] | 168 to 170 °C
N#CC1=C(c2ccc(Cl)s2)Nc2n[nH]cc2C1c1cccc2nonc12 (centres unmarked) [Example 298, 4-(2,1,3-Benzoxadiazol-4-yl)-6-(2-chlorothiophen-5-yl)-5-cyano-4,7-dihydro-2H-pyrazolo[3,4-b]pyridine] | 210 °C
C=CCCC(=O)n1cc2c(n1)NC(CCC)=C(C#N)C2c1ccccc1Cl (centres unmarked) [Example 358, 4-(2-Chlorophenyl)-5-cyano-4,7-dihydro-2-(4-pentenoyl)-6-propyl-2H-pyrazolo[3,4-b]pyridine] | 176 to 177 °C
CCOC(=O)C1=C(C(F)(F)F)Nc2n[nH]cc2C1c1ccc(Cl)cc1 (centres unmarked) [Example 18, Ethyl 4-(4-chlorophenyl)-4,7-dihydro-6-trifluoromethyl-2H-pyrazolo[3,4-b]pyridine-5-carboxylate] | 176 to 178 °C
CN(CC1=C(C#N)C(c2cccc3nonc23)c2c[nH]nc2N1)C(=O)OC(C)(C)C (centres unmarked) [Example 1020, 4-(2,1,3-Benzoxadiazol-4-yl)-6-((N-t-butoxycarbonyl-N-methylamino)methyl)-5-cyano-4,7-dihydro-2H-pyrazolo[3,4-b]-pyridine] | 207 °C
C=CCCC(=O)n1ncc2c1NC(CCC)=C(C#N)C2c1ccccc1Cl (centres unmarked) [Example 357, 4-(2-Chlorophenyl)-5-cyano-4,7-dihydro-1-(4-pentenoyl)-6-propyl-1H-pyrazolo[3,4-b]pyridine] | 140 °C

SMILES | melting point
CCCC1=C(C#N)C(c2ccccc2Cl)c2cn(C(=O)Nc3ccccc3)nc2N1 (centres unmarked) [Example 284, 4-(2-Chlorophenyl)-5-cyano-4,7-dihydro-2-phenylcarbamoyl-6-propyl-2H-pyrazolo[3,4-b]pyridine] | 167 to 171 °C
CCCC1=C(C#N)C(c2ccccc2Cl)c2cn(C(=O)OC(C)(C)C)nc2N1 (centres unmarked) [Example 282, 2-tert-Butoxycarbonyl-4-(2-chlorophenyl)-5-cyano-4,7-dihydro-6-propyl-2H-pyrazolo[3,4-b]pyridine] | 175 °C (dec.)
CCCC1=C([N+](=O)[O-])C(c2cccc3ccccc23)c2c[nH]nc2N1 (centres unmarked) [Example 123, 4,7-Dihydro-4-(naphthalen-1-yl)-5-nitro-6-propyl-2H-pyrazolo[3,4-b]pyridine] | 226 °C
CCOC(=O)C1=C(C(F)(F)F)Nc2n[nH]cc2C1c1ccccc1OC (centres unmarked) [Example 15, Ethyl 4,7-dihydro-4-(2-methoxyphenyl)-6-trifluoromethyl-2H-pyrazolo[3,4-b]pyridine-5-carboxylate] | 144 to 146 °C
CS(=O)(=O)N1CCC(C2=C(C#N)C(c3cccc4nonc34)c3c[nH]nc3N2)CC1 (centres unmarked) [Example 1029, 4-(2,1,3-Benzoxadiazol-4-yl)-5-cyano-4,7-dihydro-6-(1-methanesulfonylpiperidin-4-yl)-2H-pyrazolo[3,4-b]pyridine] | 243 °C
Cc1cccc(C2C(C#N)=C(C(C)C)Nc3n[nH]cc32)c1[N+](=O)[O-] (centres unmarked) [Example 339, 5-Cyano-4,7-dihydro-4-(3-methyl-2-nitrophenyl)-6-isopropyl-2H-pyrazolo[3,4-b]pyridine] | 261 °C
CCOC(=O)C1=C(C(F)(F)F)Nc2n[nH]cc2C1c1ccccc1 (centres unmarked) [Example 12, Ethyl 4,7-dihydro-4-phenyl-6-trifluoromethyl-2H-pyrazolo[3,4-b]pyridine-5-carboxylate] | 110 to 115 °C
N#CC1=C(c2ccccc2)Nc2n[nH]cc2C1c1cccc2nsnc12 (centres unmarked) [Example 162, 4-(2,1,3-Benzothiadiazol-4-yl)-5-cyano-4,7-dihydro-6-phenyl-2H-pyrazolo[3,4-b]pyridine] | 258 °C
N#CC1=C(C2CCCCCC2)Nc2n[nH]cc2C1c1cccc2nonc12 (centres unmarked) [Example 324, 4-(2,1,3-Benzoxadiazol-4-yl)-5-cyano-6-cycloheptyl-4,7-dihydro-2H-pyrazolo[3,4-b]pyridine] | 228 °C
N#CC1=C(C2CCCCC2)Nc2n[nH]cc2C1c1ccccc1Cl (centres unmarked) [Example 306, 4-(2-Chlorophenyl)-5-cyano-6-cyclohexyl-4,7-dihydro-2H-pyrazolo[3,4-b]pyridine] | 163 °C
CCCC1=C(C(=O)OCC)C(c2cc(OC)ccc2OC)c2c[nH]nc2N1 (centres unmarked) [Example 53, Ethyl 4-(2,5-dimethoxyphenyl)-4,7-dihydro-6-propyl-2H-pyrazolo[3,4-b]pyridine-5-carboxylate] | 169 to 170 °C
CCCC1=C(C(=O)OCC)C(c2nccn2C)c2c[nH]nc2N1 (centres unmarked) [Example 237, Ethyl 4,7-dihydro-4-(1-methyl-1H-imidazol-2-yl)-6-propyl-2H-pyrazolo[3,4-b]pyridine-5-carboxylate] | 209 °C
CCCC1=C(C#N)C(c2ccccc2Cl)c2c(n[nH]c2C2CCCC2)N1 (centres unmarked) [Example 314, 4-(2-Chlorophenyl)-5-cyano-3-cyclopentyl-4,7-dihydro-6-propyl-2H-pyrazolo[3,4-b]pyridine] | > 270 °C
CN1CCCC(C2=C(C#N)C(c3cccc(C#N)c3Br)c3c[nH]nc3N2)C1 (centres unmarked) (as salt: trifluoroacetate) [Example 1041, 4-(2-Bromo-3-cyanophenyl)-5-cyano-4,7-dihydro-6-(1-methylpiperidin-3-yl)-2H-pyrazolo[3,4-b]pyridine] | 174 °C
CCCC1=C(C(=O)OCC)C(c2cccc3nsnc23)c2c[nH]nc2N1 (centres unmarked) [Example 112, Ethyl 4-(2,1,3-benzothiadiazol-4-yl)-4,7-dihydro-6-propyl-2H-pyrazolo[3,4-b]pyridine-5-carboxylate] | 180 °C
CCCC1=C(C(=O)OCC)C(c2cccc(Cl)c2Cl)c2c[nH]nc2N1 (centres unmarked) [Example 44, Ethyl 4-(2,3-dichlorophenyl)-4,7-dihydro-6-propyl-2H-pyrazolo[3,4-b]pyridine-5-carboxylate] | 220 °C
N#CC1=C(C2=CCNCC2)Nc2n[nH]cc2C1c1cccc2nonc12 (centres unmarked) [Example 1013, 4-(2,1,3-Benzoxadiazol-4-yl)-5-cyano-4,7-dihydro-6-(1,2,3,6-tetrahydropyridin-4-yl)-2H-pyrazolo[3,4-b]pyridine] | 180 °C
CCCC1=C(C#N)C(c2cccc3nocc23)c2c[nH]nc2N1 (centres unmarked) [Example 331, 4-(2,1-Benzoisoxazol-4-yl)-5-cyano-4,7-dihydro-6-propyl-2H-pyrazolo[3,4-b]pyridine] | 239 °C
CCCC1=C(C(=O)OCC)C(c2ccccc2CCC)c2cn[nH]c2N1 (centres unmarked) [Example 101, Ethyl 4,7-dihydro-6-propyl-4-(2-propylphenyl)-1H-pyrazolo[3,4-b]pyridine-5-carboxylate] | 197 °C
